From patent US20110060010A1, “SALTS OF 3-(4-AMINO-1-OXO-1,3-DIHYDRO-ISOINDOL-2-YL)PIPERIDINE-2,6-DIONE AND DERIVATIVES THEREOF, OR POLYMORPHS OF SALTS, PROCESS FOR PREPARING SAME AND USE THEREOF” (TIANJIN HEMAY BIO-TECH CO., LTD, priority 2008, published 2011) come the findings set out here.

The conditions of data set [1]: 15° C.
Experimental: (§1) The sample in each example was scanned with UV spectroscopy in the wavelength range of 190-900 nm. The maximum absorbance was set to 2. All the samples to be determined have the same absorption peak at 304 nm. Although there are other absorption peaks in the range of 205-190 nm, the peak shapes are slightly different and the maximum absorption wavelengths thereof are different. Therefore, the fixed wavelength was determined to be 304 nm in the concentration versus absorbance determination.
(§2) Therefore, this compound was chosen to plot the concentration versus absorbance standard curve.
(§3) To a 100 mL volumetric flask were added the sample in Example 7 (279.26 mg) and distilled water. The volume was determined at 100 ml with distilled water. The concentration of the solution is 2.793 mg/mL. To a 50 mL volumetric flask was added 1 mL, 2 mL, 3 mL and 5 mL of the above solution, respectively. The volume was determined at 50 ml with distilled water. The concentrations of these solutions are 0.056 mg/mL, 0.112 mg/mL, 0.167 mg/mL and 0.279 mg/mL, respectively.
(§4) A small amount of the sample was used to prepare a 5 mL saturated solution. The solution was kept in a constant temperature water bath for 1 hour at 25° C. The supernatant was sampled and diluted to appropriate times according to the range of the standard curve. The concentration was determined by ultraviolet spectrophotometry, and the determined reading was multiplied by the dilution times to obtain the solubility of the sample to be determined.
Data set [2] in a line: Stability of aqueous solution at room temperature. The class given is physicochemical. As to conditions: 17 mg dissolved in 10 mL of deionized water, kept at room temperature for 12 hours. Here is the method:
17 mg of 3-(4-amino-1-oxo-1,3-dihydro-isoindol-2-yl)piperidine-2,6-dione bisulfate tetrahydrate (equivalent to 10 mg of 3-(4-amino-1-oxo-1,3-dihydro-isoindol-2-yl)piperidine-2,6-dione) was dissolved in 10 mL of deionized water and kept at room temperature for 12 hours. The content is higher than 98% of labeled amount.

[3] abbreviates: water, 15 °C, thermodynamic from solid.

In brackets after ≈: the same amount, converted by molar mass. Read-outs that look alike come from different tables or passages of the source.

Experimental for physchem: as §1, §2, §3, §4

`Br.Nc1cccc2c1CN(C1CCC(=O)NC1=O)C2=O` (stereo not drawn) [Example 15]: in data set [1], the Water-solubility was 5.5 mg/mL.

Consider `Cl.Nc1cccc2c1CN(C1CCC(=O)NC1=O)C2=O` (stereo not drawn) [Example 11], for which, in data set [1], the Water-solubility turned out to be 1.23 mg/mL.

The solubility is the concentration that dissolves in the medium under given conditions. Compound `Nc1cccc2c1CN(C1CCC(=O)NC1=O)C2=O` (stereo not drawn) [Compound (II), in which Y represents H, 3-(4-amino-1-oxo-1,3-dihydro-isoindol-2-yl)piperidine-2,6-dione] had a solubility in the data set “physchem” (setting [3]) of 0.29 mg/mL (≈ 1120 µM).

For the compound `Nc1cccc2c1CN(C1CCC(=O)NC1=O)C2=O.O.O.O.O.O=S(=O)(O)O` (stereo not drawn) [Example 7, 3-(4-amino-1-oxo-1,3-dihydro-isoindol-2-yl)piperidine-2,6-dione bisulfate tetrahydrate], in “physchem” (15 °C, water, thermodynamic from solid), the solubility at 1 h is above 1000 mg/mL. Besides, the solubility in the data set “physchem” (water, thermodynamic from solid) is above 1000 mg/mL. The “content (of labeled amount)” value in data set [2] is recorded as “higher than 98 % of labeled amount”.

For the compound `Nc1cccc2c1CN(C1CCC(=O)NC1=O)C2=O.O=[N+]([O-])O` (stereo not drawn) [Example 10], the Water-solubility in data set [1] was found to be 3.68 mg/mL.

In data set [1] (in water), `Nc1cccc2c1CN(C1CCC(=O)NC1=O)C2=O.O=S(=O)(O)c1cccc2ccccc12` (stereo not drawn) [Example 4] had a solubility of 5.60 mg/mL.

`Nc1cccc2c1CN(C1CCC(=O)NC1=O)C2=O` (stereo not drawn) [Example 12, 3-(4-amino-1-oxo-1,3-dihydro-isoindol-2-yl)piperidine-2,6-dione]: the solubility at 1 h in “physchem” (setting [3]) came out at 0.57 mg/mL (≈ 2200 µM).
